In patent US10227345B2, “Compounds and methods for inhibiting fascin” (Cornell University, priority 2014, dated 2019) one finds inhibition and IC50 data, which are given here for six compounds.

pIC50: −log10 of the molar value.

One assay has as its target T1, human fascin 1 (Homo sapiens, UniProt Q16658).
T1 construct: GST (N, cleaved yes); made in house; host or cells: Escherichia coli BL21/DE3 (pGEX4T-fascin 1 plasmid)
Description: Fascin inhibition (actin bundling) assay, image-based. The class given is biochemical. As to conditions: in the presence of 50 μm of the compound relative to bundle activity when the compound was not present; read-out: Inhibition (percentage reduction of bundle activity). In a few lines: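 GST-tagged human fascin 1 from E. coli, thrombin-cleaved, was preincubated with compounds for 30 min, then polymerized actin was added; compounds were at 30 μM final. Bundles captured on poly-D-lysine plates were imaged, and background-corrected bundle length per well was computed, with DMSO-only wells as negative controls.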

Assay [1] concerns MDA-MB-231 human breast tumor cells. Description: Boyden-chamber cell migration assay. The class given is cell-based. As to conditions: migration 6 h. The method, then:
Certain tumor cells with fascin expression are listed below.
Exemplifying procedure: MDA-MB-231 cells (5×10^4) or 4T1 Cells (1×10^5) were suspended in 100 μl starvation medium and added to the upper chamber of an insert (6.5 mm diameter, 8 μm pore size; Becton Dickson). The insert was placed in a 24-well plate containing 700 μL starvation medium with or without 10% FBS. […] Migration assays were performed for 6 h and cells are fixed with 3.7% formaldehyde. Cells were stained with crystal violet staining solution, and cells on the upper side of the insert were removed with a cotton swab. Three randomly selected fields (×10 objectives) on the lower side of the insert were photographed, and the migrated cells were counted. Migration was expressed as average number of migrated cells in a field.

Broadly, the inhibition is the percentage by which the read-out fell short of the control. As usually defined, the pIC50 is the negative decadic logarithm of the IC50, by convention in mol/L. As to `O=C(Nc1nn(Cc2ccc(C(F)(F)F)cc2)c2ccccc12)c1ccno1` [Compound 25, N-(1-(4-(trifluoromethyl)benzyl)-1H-indazol-3-yl)isoxazole-5-carboxamide], the inhibition at 50 µM at human fascin 1 was 100%. The compound further had a pIC50 in assay [1] of 4.27.

On to `O=C(Nc1nn(Cc2ccc(C(F)(F)F)cc2)c2ccccc12)c1cccnn1` [Compound 49, N-(1-(4-(trifluoromethyl)benzyl)-1H-indazol-3-yl)pyridazine-3-carboxamide], for which the inhibition at 50 µM on human fascin 1 was found to be 100%. For the same compound, in assay [1], the pIC50 was 4.89.

Turning to `Cc1nocc1C(=O)Nc1nn(Cc2ccc(C(F)(F)F)cc2)c2ccccc12` [Compound 35, 3-methyl-N-(1-(4-(trifluoromethyl)benzyl)-1H-indazol-3-yl)isoxazole-4-carboxamide], the inhibition at 50 µM on human fascin 1 is 100%. The compound also showed a pIC50 in assay [1] of 4.74.

Consider `O=C(Nc1nn(Cc2ccc(Cl)cc2)c2ccccc12)c1ccno1` [Compound 66, N-(1-(4-chlorobenzyl)-1H-indazol-3-yl)isoxazole-5-carboxamide], for which the inhibition at 50 µM at human fascin 1 stood at 100%. The pIC50 in assay [1] is 3.79.

On to `Cc1nocc1C(=O)Nc1nn(Cc2ccc(Cl)cc2)c2ccccc12` [Compound 65, N-(1-(4-chlorobenzyl)-1H-indazol-3-yl)-3-methylisoxazole-4-carboxamide], for which the inhibition at 50 µM at human fascin 1 was 90%. For the same compound, the pIC50 in assay [1] is 4.19.

Turning to `Cc1occc1C(=O)Nc1nn(Cc2ccc(C(F)(F)F)cc2)c2ccc(C(F)(F)F)cc12` [Compound 125, 2-methyl-N-(5-(trifluoromethyl)-1-(4-(trifluoromethyl)benzyl)-1H-indazol-3-yl)furan-3-carboxamide], at human fascin 1, the inhibition at 50 µM was under 10%.
